In patent publication US20240285525A1, “METHODS AND MATERIALS FOR TREATING CANCER” (The Johns Hopkins University, priority 2021, published 2024):

Experiments:
GL261 cells [1] = assay: Inhibition of endocytosis (nanotube uptake, flow cytometry); assay type: cell-based, mouse; details: inhibitor 30 min then nanotubes 3 hours, 30 μg/mL DMA, 500 μg/mL fucoidan, 10 μM LatB
Description: 200,000 GL261 cells were plated per well in 12-well plates and incubated at 37° C. and 5% CO2 overnight. The following day, media was replaced with fresh media, and inhibitor stock solutions were diluted and delivered to the cells at targeted concentrations: 1.25 μg/mL cytochalasin D (CytD), 10 μM latrunculin B (LatB), 15 μg/mL nocodazole, 5 μg/mL fillipin, 2.5 μg/mL nystatin, 1.32 mg/mL methyl-β-cyclodextrin (MPCD), 2.5 μg/mL chlorpromazine (CPZ), 12.5 μg/mL dynasore, 0.2 μg/mL pertussis toxin (PTX), 2 μg/mL cholera toxin (CTX), 30 μg/mL 5-(N,N-dimethyl)-amiloride hydrochloride (DMA), and 500 μg/mL fucoidan. Cells with no inhibitor were used as positive controls. Plates were gently shaken by hand to ensure even distribution of inhibitors, and placed in the incubator for 30 minutes. […] Cells were washed twice with 1 mL PBS, trypsin-EDTA at 37° C. was added to each well, the contents of each well were individually mixed via up and down pipetting and transferred to 1.5 mL centrifuge tubes. Cells were washed twice with PBS, reconstituted in 500 μL PBS and transferred to flow cytometry tubes. 5 μL of 10 μg/mL propidium iodide (PI) solution was added to each tube and vortexed. The cells were run on a BD FACSCanto flow cytometer and were examined for PI and HEX fluorescence via excitation at 488 nm with a 585/42 filter. Cells were gated by PI staining to select for live cells, and by scattering (FSC-A and SSC-A) to select for single cells. To evaluate cytotoxicity of inhibitors, 10,000 GL261 cells were plated in 96-well plates and incubated overnight in a 37° C. 5% C02 incubator. The next day, media was replaced with fresh formulated media, and inhibitor stock solutions were diluted and delivered to the cells at concentrations mentioned above. Plates were gently shaken by hand and placed in the incubator for 3 hours. Cell viability was measured using CellTiter-Glo 2.0 assay (Promega, Madison, WI) following the manufacturer's protocol. Luminescence was recorded using a Synergy H1 microplate reader (Biotek, Winooski, VT), and cell viability was normalized to untreated cells.

[2] = tested on: M2 macrophages from primary CD14+human monocytes; assay: Macrophage gene expression via RT-qPCR; assay type: cell-based; details: 1 μM TS free or in nanotubes, or empty nanotubes; compared to untreated M2-macrophages
Description: Freshly isolated primary CD14+human monocytes were plated at a density of 500,000 cells/well in the presence of 50 ng/mL of M-CSF (macrophage colony stimulating factor) to differentiate them to MO-macrophages. The media were renewed with the same composition (DMEM+10% FBS+1% Penicillin-Streptomycin+50 ng/mL M-CSF) every 2-3 days until complete differentiation. The macrophages were treated with 20 ng/mL of IL-4 for 3 days differentiate them to an M2-phenotype.
Cells were detached using 1× Tryp1E Express Enzyme (ThermoFisher Scientific) and washed with PBS. TRIzol (ThermoFisher Scientific) was added to the cells followed by absolute ethanol. mRNA was collected in Zymo-Spin IC columns (Zymo Research) by centrifuging the cell solution in the spin columns. The mRNA was washed and resuspend in RNAse and DNAse free water. After evaluating the mRNA concentration, the cDNA reaction mixture was prepared by adding the mRNA to nuclease-free water, iScript Reverse Transcriptase (Bio-Rad) and 5× iScript Reaction Mix. The cDNA reaction was performed using TurboCycler Lite Thermal Cycler (Blue-Ray Biotech). The cDNA was then aliquoted and added to a mixture of primers for the genes 1112b, 118, Nos2, 1110, Tgfb1 and Fizz1 respectively along with iTaq™ Universal SYBR® Green Supermix (Bio-Rad). […] Data was analysed using the ΔΔCt method. […]

[3] = Histopathological analysis of organs (H&E); assay type: in vivo, mouse
Excerpt: 8 week old mice were used for this study. […] The photon counts within each ROI were quantified.
Following perfusion and fixation with 10% neutral buffered formalin, tissues were processed into paraffin blocks using standard histology techniques, sectioned at a thickness of […], stained with hematoxylin and eosin (H&E), and evaluated using light microscopy.

[4] = tested on: GL261-Luc orthotopic tumor; assay: Intracranial delivery via CED in orthotopic GL261-Luc mouse model
GL261 cells [5] = assay: Cell viability (CellTiter-Glo 2.0); assay type: cell-based, mouse; details: 12 hours + 36 hours at 37° C.; NT 5-6.4 μM ssDNA-amphiphiles, DOX 5 μg/mL, NT-DOX same concentrations; normalized to untreated
Description: The samples were incubated with cells for 12 hours at 37° C., followed by a single wash with PBS. 100 μL of fresh media was added, and cells were incubated at 37° C. for an additional 36 hours. […] The luminescence signal of each well was measured, and the luminescence of each group was normalized to the luminescence of the untreated cells.

## CN(C)c1nc(N)c(C(=O)N=C(N)N)nc1Cl.Cl [DMA, 5-(N,N-dimethyl)-amiloride hydrochloride]
GL261 cells [1]
  inhibition of cellular uptake of the nanotubes: 44%

## C/C1=C/C(=O)O[C@@H]2C[C@@H](CC[C@H](C)/C=C\CC1)O[C@@](O)([C@@H]1CSC(=O)N1)C2 [LatB, latrunculin B]
GL261 cells [1]
  inhibition of cellular uptake of the nanotubes: 20%

## C=C(NC(=O)C(=C)NC(=O)c1csc(C2=N[C@@H]3c4csc(n4)[C@H]4NC(=O)c5csc(n5)[C@H]([C@](C)(O)[C@@H](C)O)NC(=O)[C@H]5CSC(=N5)/C(=C/C)NC(=O)[C@H]([C@@H](C)O)NC(=O)c5csc(n5)[C@]3(CC2)NC(=O)[C@H](C)NC(=O)C(=C)NC(=O)[C@H](C)NC(=O)[C@H]([C@@H](C)CC)N[C@@H]2C=Cc3c([C@H](C)O)cc(nc3[C@H]2O)C(=O)O[C@@H]4C)n1)C(N)=O [free TS, thiostrepton]
[2]
  expression of genes associated with M2-like macrophages (ΔΔCt): successful at downregulating genes associated with M2-like macrophages
  expression of genes of M1-like macrophages (ΔΔCt): upregulating genes of M1-like macrophages

## fucoidan
GL261 cells [1]
  inhibition of cellular uptake of the nanotubes: 57%

## COc1cccc2c1C(=O)c1c(O)c3c(c(O)c1C2=O)C[C@@](O)(C(=O)CO)C[C@@H]3O[C@H]1C[C@H](N)[C@H](O)[C@H](C)O1.Cl [DOX, Doxorubicin-hydrogen chloride]
[3]
  histology of liver: multifocal areas of hepatocyte degeneration and necrosis
  histology of spleen: diffuse, moderate to marked depletion of the spleen white pulp associated with zonal lymphocytic apoptosis and necrosis
[3]; compared to the PBS control
  histology of lung, kidney and heart tissues: no significant findings
[4]; after 28 days
  body weight gained: 6%
[4]; day 28, pump 70 μM DOX (0.2 mg DOX/Kg mouse), about 14 days, 0.25 μL/hour
  decrease in tumor signal (bioluminescence): 80%
[4]; n=9-10 per group, NT 95 μM ssDNA-amphiphiles, DOX 70 μM
  median survival time: 34.5 days
GL261 cells [5]
  viability of GL261 cells: 47±6%
